{
  "source": "patent US9669100B2",
  "about": "“Polymer support for the distribution of a naturally crystalline substance and production method” (priority 2013, dated 2017)",
  "key": {"[1]": {"experiment": "Stability of the active solution (limpid, no recrystallisation)", "type": "physicochemical", "conditions": "ESTASOL/ARLASOLVE DMI plus refined coconut oil; after stirring (30 min Example 1, 20 min Example 3)", "method": "In a 1 liter beaker, the following products are successively introduce with stirring:\nAnd then introduce by sprinkling while still stirring:\nAfter completely dissolving, pour while still stirring:\n300 g refined coconut oil.\nIn a 1 liter beaker, the following are successively added under stirring:\n100 g refined coconut oil.\nAll is stirred for 20 minutes until the active solution becomes limpid."}, "[2]": {"experiment": "Solubilisation of naturally crystalline substances in the solvent mixture (dibasic esters / dimethyl isosorbide)", "type": "physicochemical", "conditions": "solvent mixture solvent/cosolvent"}},
  "data": [
    {"smiles": "Cn1c(=O)c2c(ncn2C)n(C)c1=O", "note": "[Caffeine]", "values": [
      {"measurement": "state of the active solution after preparation", "setting": "[1]", "value": "does not recrystallise"}
    ]},
    {"smiles": "CC1(C)[C@H](C(=O)O[C@H](C#N)c2cccc(Oc3ccccc3)c2)[C@@H]1C=C(Br)Br", "note": "[Deltamethrin]", "values": [
      {"measurement": "maximum concentration possible without recrystallization in the active solution", "setting": "[2]; cold solution, even at low temperature", "value": "≤ 20", "unit": "% by weight"}
    ]},
    {"smiles": "CNC(=O)Oc1ccccc1OC(C)C", "note": "[Propoxur]", "values": [
      {"measurement": "concentration dissolved in a stable manner in the solvent mixture", "setting": "[2]", "value": "56 % by weight of solution"}
    ]}
  ]
}
